Assay results taken from ChEMBL document CHEMBL4311976, “Design, synthesis and biological evaluation of novel 7H-pyrrolo[2,3-d]pyrimidine derivatives as potential FAK inhibitors and anticancer agents” (Eur J Med Chem, 2019).
pIC50: −log10 of the molar value.

Tests used:
[1] = target: Serine/threonine-protein kinase TBK1 (Homo sapiens) (UniProt Q9UHD2); test: Inhibition of recombinant full length GST-tagged human TBK1 expressed in insect cells at 0.5 uM using Ser/Thr 05 as substrate in presence of ATP at Km concentration after 1 hr by Z'-LYTE assay relative to control
[2] = target: Proto-oncogene tyrosine-protein kinase receptor Ret (Homo sapiens) (UniProt P07949); test: Inhibition of recombinant GST-tagged human RET (658 to 1114 residues) expressed in baculovirus expression system at 0.5 uM using tyr 02 as substrate in presence of ATP at Km concentration after 1 hr by Z'-LYTE assay relative to control
Focal adhesion kinase 1 = Focal adhesion kinase 1 (Homo sapiens, UniProt Q05397); test: Inhibition of recombinant full length GST-tagged human FAK cytoplasmic domain expressed in baculovirus expression system at 0.5 uM using tyr 07 as substrate in presence of ATP at Km concentration after 1 hr by Z'-LYTE assay relative to control
Homo sapiens = organism: Homo sapiens; test: Inhibition of recombinant full length His-tagged human PKA catalytic domain expressed in Escherichia coli at 0.5 uM using Ser/Thr 01 as substrate in presence of ATP at Km concentration after 1 hr by Z'-LYTE assay relative to control
[3] = target: Mast/stem cell growth factor receptor Kit (Homo sapiens) (UniProt P10721); test: Inhibition of recombinant His-tagged human KIT (544 to 976 residues) expressed in baculovirus expression system at 0.5 uM using tyr 06 as substrate in presence of ATP at Km concentration after 1 hr by Z'-LYTE assay relative to control
[4] = target: Vascular endothelial growth factor receptor 2 (Homo sapiens) (UniProt P35968); test: Inhibition of recombinant His-tagged human KDR cytoplasmic domain (789 to 1356 residues) expressed in baculovirus expression system at 0.5 uM using tyr 01 as substrate in presence of ATP at Km concentration after 1 hr by Z'-LYTE assay relative to control
[5] = target: Fibroblast growth factor receptor 1 (Homo sapiens) (UniProt P11362); test: Inhibition of recombinant His-tagged human FGFR1 (308 to 731 resides) expressed in baculovirus expression system at 0.5 uM using tyr 04 as substrate in presence of ATP at Km concentration after 1 hr by Z'-LYTE assay relative to control
[6] = target: Discoidin domain-containing receptor 2 (Homo sapiens) (UniProt Q16832); test: Inhibition of recombinant GST-tagged human DDR2 (427 to 855 residues) expressed in baculovirus expression system at 0.5 uM after 1 hr by Lantha screen assay relative to control
[7] = target: Serine/threonine-protein kinase Chk1 (Homo sapiens) (UniProt O14757); test: Inhibition of recombinant full-legth His-tagged human CHK1 expressed in baculovirus expression system at 0.5 uM using Ser/Thr 19 as substrate in presence of ATP at Km concentration after 1 hr by Z'-LYTE assay relative to control
[8] = target: ALK tyrosine kinase receptor (Homo sapiens) (UniProt Q9UM73); test: Inhibition of recombinant human GST-tagged ALK (1058 to 1620 residues) expressed in baculovirus at 0.5 uM using tyr 01 as substrate as substrate in presence of ATP at Km concentration after 1 hr by Z'-LYTE assay relative to control
[9] = target: Tyrosine-protein kinase ABL1 (Homo sapiens) (UniProt P00519); test: Inhibition of full-length His-tagged human ABL1 expressed in baculovirus expression system at 0.5 uM using tyr 02 as substrate in presence of ATP at Km concentration after 1 hr by Z'-LYTE assay relative to control
CYP3A4 = CYP3A4 (Homo sapiens, UniProt P08684); test: Inhibition of CYP3A4 in human pooled liver microsomes at 10 uM using midazolam as substrate preincubated for 10 mins followed by NADPH addition and measured after 15 mins by LC/MS/MS analysis relative to control; assay type: ADME; conditions: probe midazolam
CYP2D6 = CYP2D6 (Homo sapiens, UniProt P10635); test: Inhibition of CYP2D6 in human pooled liver microsomes at 10 uM using dextromethorphan as substrate preincubated for 10 mins followed by NADPH addition and measured after 15 mins by LC/MS/MS analysis relative to control; assay type: ADME; conditions: probe dextromethorphan
CYP2C19 = CYP2C19 (Homo sapiens, UniProt P33261); test: Inhibition of CYP2C19 in human pooled liver microsomes at 10 uM using S-mephenytoin as substrate preincubated for 10 mins followed by NADPH addition and measured after 15 mins by LC/MS/MS analysis relative to control; assay type: ADME; conditions: probe S-mephenytoin
CYP1A2 = CYP1A2 (Homo sapiens, UniProt P05177); test: Inhibition of CYP1A2 in human pooled liver microsomes at 10 uM using phenacetin as substrate preincubated for 10 mins followed by NADPH addition and measured after 15 mins by LC/MS/MS analysis relative to control; assay type: ADME; conditions: probe phenacetin
[10] = Intrinsic clearance in human liver at 1 uM measured up to 1 hr in presence of NADPH by LC-MS/MS analysis; assay type: ADME, tissue-based
[11] = Metabolic stability in human liver microsomes assessed as compound remaining at 1 uM measured up to 1 hr in absence of NADPH by LC-MS/MS analysis; assay type: ADME, Microsome; conditions: read-out: Stability
[12] = Metabolic stability in mouse liver microsomes assessed as compound remaining at 1 uM measured up to 1 hr in absence of NADPH by LC-MS/MS analysis; assay type: ADME, Microsome; conditions: read-out: Stability
[13] = Metabolic stability in rat liver microsomes assessed as compound remaining at 1 uM measured up to 1 hr in presence of NADPH by LC-MS/MS analysis; assay type: ADME, Microsome; conditions: read-out: Stability
A549 [14] = test: Induction of apoptosis in human A549 cells assessed as necrotic cells at 3 uM after 72 hrs by Annexin V-FITC/propidium iodide staining-based flow cytometric analysis (reference value: 1.70%); assay type: functional
A549 [15] = test: Induction of apoptosis in human A549 cells assessed as viable cells at 3 uM after 72 hrs by Annexin V-FITC/propidium iodide staining-based flow cytometric analysis (reference value: 94.66%); assay type: functional; conditions: A549, 72 h, read-out: Activity
A549 [16] = test: Induction of apoptosis in human A549 cells assessed as necrotic cells at 1 uM after 72 hrs by Annexin V-FITC/propidium iodide staining-based flow cytometric analysis (reference value: 1.70%); assay type: functional
A549 [17] = test: Induction of apoptosis in human A549 cells assessed as late apoptotic cells at 1 uM after 72 hrs by Annexin V-FITC/propidium iodide staining-based flow cytometric analysis (reference value: 1.24%); assay type: functional
A549 [18] = test: Induction of apoptosis in human A549 cells assessed as viable cells at 1 uM after 72 hrs by Annexin V-FITC/propidium iodide staining-based flow cytometric analysis (reference value: 94.66%); assay type: functional; conditions: A549, 72 h, read-out: Activity
A549 [19] = test: cells; conditions: Homo sapiens, A549, 72 h
Description: Antiproliferative activity against human A549 cells assessed as reduction in cell viability after 72 hrs by MTT assay

HK-2 = test: cells; conditions: Homo sapiens, HK-2, 72 h
Description: Cytotoxicity against human HK2 cells assessed as reduction in cell viability after 72 hrs by MTT assay

Chain of Vascular endothelial growth factor receptor 2 (Homo sapiens) (P35968 whole entry, the tested form may be a part): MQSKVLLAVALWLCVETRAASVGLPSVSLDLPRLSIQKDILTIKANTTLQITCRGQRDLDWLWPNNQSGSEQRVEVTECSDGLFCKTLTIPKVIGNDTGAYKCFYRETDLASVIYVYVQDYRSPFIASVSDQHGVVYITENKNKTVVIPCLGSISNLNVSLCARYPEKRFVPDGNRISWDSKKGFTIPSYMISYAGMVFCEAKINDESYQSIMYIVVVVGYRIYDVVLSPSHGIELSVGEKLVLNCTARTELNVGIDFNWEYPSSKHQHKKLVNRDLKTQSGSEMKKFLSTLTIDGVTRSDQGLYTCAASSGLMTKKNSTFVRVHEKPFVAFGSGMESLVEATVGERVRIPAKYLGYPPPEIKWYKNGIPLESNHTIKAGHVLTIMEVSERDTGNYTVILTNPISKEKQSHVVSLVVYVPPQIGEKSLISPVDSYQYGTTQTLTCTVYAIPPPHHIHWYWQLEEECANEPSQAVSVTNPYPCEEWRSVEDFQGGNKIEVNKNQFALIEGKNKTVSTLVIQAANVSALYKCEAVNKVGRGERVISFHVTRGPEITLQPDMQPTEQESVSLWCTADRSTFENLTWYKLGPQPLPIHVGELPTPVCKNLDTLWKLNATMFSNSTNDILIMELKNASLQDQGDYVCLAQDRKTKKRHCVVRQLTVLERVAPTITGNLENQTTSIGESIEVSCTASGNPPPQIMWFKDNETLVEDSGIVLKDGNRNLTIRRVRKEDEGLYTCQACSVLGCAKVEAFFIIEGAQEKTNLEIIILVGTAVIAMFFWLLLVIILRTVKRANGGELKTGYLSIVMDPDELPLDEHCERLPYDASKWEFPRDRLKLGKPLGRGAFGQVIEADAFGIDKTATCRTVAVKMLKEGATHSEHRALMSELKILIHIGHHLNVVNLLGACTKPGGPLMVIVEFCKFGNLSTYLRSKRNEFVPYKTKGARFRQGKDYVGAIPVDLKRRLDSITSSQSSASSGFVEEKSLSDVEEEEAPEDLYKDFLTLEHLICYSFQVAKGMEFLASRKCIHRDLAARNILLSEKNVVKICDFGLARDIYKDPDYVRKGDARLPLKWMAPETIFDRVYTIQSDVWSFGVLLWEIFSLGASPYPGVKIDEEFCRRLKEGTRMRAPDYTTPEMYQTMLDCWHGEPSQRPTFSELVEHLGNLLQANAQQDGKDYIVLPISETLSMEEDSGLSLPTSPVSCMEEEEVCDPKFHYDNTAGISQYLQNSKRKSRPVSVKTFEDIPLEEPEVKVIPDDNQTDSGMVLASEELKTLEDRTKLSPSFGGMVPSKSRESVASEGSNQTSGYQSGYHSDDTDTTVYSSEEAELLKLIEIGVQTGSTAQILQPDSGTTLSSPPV
Chain of Fibroblast growth factor receptor 1 (Homo sapiens) (P11362 22-822 limits assumed): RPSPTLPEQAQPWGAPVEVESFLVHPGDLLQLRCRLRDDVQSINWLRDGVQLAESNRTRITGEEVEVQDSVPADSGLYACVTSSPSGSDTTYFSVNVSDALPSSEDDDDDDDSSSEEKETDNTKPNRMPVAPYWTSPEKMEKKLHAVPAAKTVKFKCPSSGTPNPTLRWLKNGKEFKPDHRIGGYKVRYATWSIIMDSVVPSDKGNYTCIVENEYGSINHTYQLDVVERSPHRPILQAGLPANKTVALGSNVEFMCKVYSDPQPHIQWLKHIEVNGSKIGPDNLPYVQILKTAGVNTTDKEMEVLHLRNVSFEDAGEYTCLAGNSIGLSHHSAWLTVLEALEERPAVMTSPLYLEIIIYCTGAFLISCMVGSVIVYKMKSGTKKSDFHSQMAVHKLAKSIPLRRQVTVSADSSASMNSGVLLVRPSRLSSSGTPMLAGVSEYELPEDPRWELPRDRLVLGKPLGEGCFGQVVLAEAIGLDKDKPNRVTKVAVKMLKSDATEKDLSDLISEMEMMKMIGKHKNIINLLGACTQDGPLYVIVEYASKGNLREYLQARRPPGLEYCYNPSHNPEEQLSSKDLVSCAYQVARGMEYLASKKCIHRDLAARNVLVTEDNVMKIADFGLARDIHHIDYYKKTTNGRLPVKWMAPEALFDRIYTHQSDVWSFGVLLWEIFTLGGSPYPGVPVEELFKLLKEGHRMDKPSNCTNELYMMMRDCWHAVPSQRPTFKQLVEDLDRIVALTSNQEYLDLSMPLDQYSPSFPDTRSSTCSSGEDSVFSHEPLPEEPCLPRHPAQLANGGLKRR
Chain of CYP2C19 (P33261 whole entry): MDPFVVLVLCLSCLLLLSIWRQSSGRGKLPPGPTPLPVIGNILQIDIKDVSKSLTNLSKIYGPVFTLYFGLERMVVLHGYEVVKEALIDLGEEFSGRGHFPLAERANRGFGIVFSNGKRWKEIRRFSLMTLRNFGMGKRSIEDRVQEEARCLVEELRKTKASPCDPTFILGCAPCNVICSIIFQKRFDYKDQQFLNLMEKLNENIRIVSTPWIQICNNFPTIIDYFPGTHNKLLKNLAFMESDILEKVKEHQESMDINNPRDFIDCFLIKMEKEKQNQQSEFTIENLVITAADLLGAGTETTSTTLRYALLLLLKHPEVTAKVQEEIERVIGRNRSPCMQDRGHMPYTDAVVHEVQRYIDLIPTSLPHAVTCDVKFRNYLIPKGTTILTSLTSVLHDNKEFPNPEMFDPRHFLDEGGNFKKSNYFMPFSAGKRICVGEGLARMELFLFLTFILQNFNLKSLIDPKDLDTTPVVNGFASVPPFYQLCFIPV
Chain of CYP2D6 (P10635 whole entry): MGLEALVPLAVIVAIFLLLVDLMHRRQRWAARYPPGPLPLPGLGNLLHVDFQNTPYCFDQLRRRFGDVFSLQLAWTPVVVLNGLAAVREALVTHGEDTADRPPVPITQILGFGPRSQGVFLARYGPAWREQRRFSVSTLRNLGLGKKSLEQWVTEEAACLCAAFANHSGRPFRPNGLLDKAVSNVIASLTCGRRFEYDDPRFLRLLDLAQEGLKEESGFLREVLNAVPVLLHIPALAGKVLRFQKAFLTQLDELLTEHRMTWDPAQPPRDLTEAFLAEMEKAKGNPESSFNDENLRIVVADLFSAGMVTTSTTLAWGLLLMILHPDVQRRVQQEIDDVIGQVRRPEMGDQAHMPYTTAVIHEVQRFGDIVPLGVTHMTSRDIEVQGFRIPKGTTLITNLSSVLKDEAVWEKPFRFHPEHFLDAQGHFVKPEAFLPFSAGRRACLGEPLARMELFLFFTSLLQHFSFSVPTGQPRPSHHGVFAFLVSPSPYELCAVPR
Chain of Proto-oncogene tyrosine-protein kinase receptor Ret (Homo sapiens) (P07949 whole entry, the tested form may be a part): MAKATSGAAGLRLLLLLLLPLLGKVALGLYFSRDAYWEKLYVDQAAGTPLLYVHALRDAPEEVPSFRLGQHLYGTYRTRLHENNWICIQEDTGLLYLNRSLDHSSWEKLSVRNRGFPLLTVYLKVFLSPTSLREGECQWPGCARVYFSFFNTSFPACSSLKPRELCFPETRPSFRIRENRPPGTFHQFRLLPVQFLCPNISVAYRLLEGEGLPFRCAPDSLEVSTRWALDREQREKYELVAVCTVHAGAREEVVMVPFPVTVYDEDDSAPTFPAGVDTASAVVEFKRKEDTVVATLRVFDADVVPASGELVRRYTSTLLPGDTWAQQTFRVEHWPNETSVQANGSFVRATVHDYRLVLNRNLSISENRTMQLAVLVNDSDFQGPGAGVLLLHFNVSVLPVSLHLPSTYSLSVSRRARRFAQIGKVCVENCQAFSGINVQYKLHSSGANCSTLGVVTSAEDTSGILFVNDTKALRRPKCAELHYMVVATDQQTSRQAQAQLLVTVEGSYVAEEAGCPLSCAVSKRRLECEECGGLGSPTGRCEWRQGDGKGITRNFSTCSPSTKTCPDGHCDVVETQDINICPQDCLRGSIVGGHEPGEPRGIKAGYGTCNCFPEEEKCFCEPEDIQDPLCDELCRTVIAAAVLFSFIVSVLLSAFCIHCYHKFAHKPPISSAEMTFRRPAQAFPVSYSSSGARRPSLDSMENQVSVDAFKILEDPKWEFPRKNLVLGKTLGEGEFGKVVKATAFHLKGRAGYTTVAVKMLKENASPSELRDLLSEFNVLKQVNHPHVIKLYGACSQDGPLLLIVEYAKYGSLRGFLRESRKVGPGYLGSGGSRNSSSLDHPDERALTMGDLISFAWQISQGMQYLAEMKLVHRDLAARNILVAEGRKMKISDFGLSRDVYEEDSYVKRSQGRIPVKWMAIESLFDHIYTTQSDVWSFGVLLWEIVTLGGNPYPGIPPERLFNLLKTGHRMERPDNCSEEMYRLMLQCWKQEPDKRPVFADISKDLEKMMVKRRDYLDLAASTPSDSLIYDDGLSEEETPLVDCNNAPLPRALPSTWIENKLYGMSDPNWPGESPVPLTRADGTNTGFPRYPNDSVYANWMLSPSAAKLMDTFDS
Chain of CYP1A2 (P05177 whole entry): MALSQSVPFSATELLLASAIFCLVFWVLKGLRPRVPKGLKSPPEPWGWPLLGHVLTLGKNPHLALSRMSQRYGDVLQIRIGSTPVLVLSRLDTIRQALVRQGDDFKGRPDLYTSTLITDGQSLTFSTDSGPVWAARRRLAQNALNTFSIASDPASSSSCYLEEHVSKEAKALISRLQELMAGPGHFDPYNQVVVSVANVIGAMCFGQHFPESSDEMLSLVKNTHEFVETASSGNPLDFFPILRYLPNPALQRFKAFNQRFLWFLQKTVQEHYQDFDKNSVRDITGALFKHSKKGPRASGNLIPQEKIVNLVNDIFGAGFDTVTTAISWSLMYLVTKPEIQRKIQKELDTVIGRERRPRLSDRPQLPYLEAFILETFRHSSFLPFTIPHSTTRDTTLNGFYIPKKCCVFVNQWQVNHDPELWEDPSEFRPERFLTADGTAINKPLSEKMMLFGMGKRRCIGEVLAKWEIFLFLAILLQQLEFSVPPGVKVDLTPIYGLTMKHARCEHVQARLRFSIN

inhibition [1]: 23% | inhibition [2]: 10% | inhibition (Focal adhesion kinase 1): 100% | inhibition (Homo sapiens): 2% | inhibition [3]: 2% | inhibition [4]: 1% | inhibition [5]: 6% | inhibition [6]: 1% | inhibition [7]: 3% | inhibition [8]: 98% | inhibition [9]: 5% | inhibition at 0.25 h, 10 µM (CYP3A4): 10.5% | inhibition at 0.25 h, 10 µM (CYP2D6): 10.7% | inhibition at 0.25 h, 10 µM (CYP2C19): 4.9% | inhibition at 0.25 h, 10 µM (CYP1A2): 1.5% | CLH [10]: 11.6 mL/min/kg | remaining at 1 h, 1 µM [11]: 81.2% | remaining at 1 h, 1 µM [12]: 78% | remaining at 1 h, 1 µM [13]: 80.7% | pIC50 (A549 [19]): 5.49 | pIC50 (HK-2): < 4.60
SMILES: COc1cc(C(=O)NC2CCNCC2)ccc1Nc1nc(Nc2ccccc2P(C)(C)=O)c2cc[nH]c2n1
Activity (A549 [14]): 4.72% | viability at 3 µM (A549 [15]): 52.9% | Activity (A549 [16]): 6.37% | Activity (A549 [17]): 9.62% | viability at 1 µM (A549 [18]): 70.7%
